# Assays:
# B-RAF G466V = target: T1, B-RAF G466V (Homo sapiens, UniProt P15056, G466V); assay: Target protein degradation, assay D: T-Rex 293 cells, HA-BRAF_G466V, 384 well format; assay type: cell-based; settings: T-Rex 293 HA-BRAF_G466V cells, 24 hours, Examples 83-269; for Dmax: T-REx-293, Assay D
# T1 construct: expressed in transfected cells; host or cells: T-Rex 293 cells (Invitrogen #R71007)
# Method in brief: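 T-Rex 293 cells stably expressing doxycycline-induced (1 ng/mL) HA-BRAF G466V treated 24 h at 37 °C with PROTACs, 11-point 1:3 dilution, 300 nM to 5 pM final, 0.5% DMSO. Fixed cells immunostained for HA and imaged by high-content microscopy; DC50 and Dmax (% of control) derived, toxicity from nuclei counts versus DMSO.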
# B-RAF V600E = target: T2, B-RAF V600E (Homo sapiens, UniProt P15056, V600E); assay: Target protein degradation, assay C: T-Rex 293 cells, HA-BRAF_V600E, 384 well format; assay type: cell-based; settings: T-Rex 293 HA-BRAF_V600E cells, 24 hours, Examples 83-269; for DC50: Assay C; for Dmax: T-REx-293, Assay C
# T2 construct: expressed in transfected cells; host or cells: T-Rex 293 cells (Invitrogen #R71007)
# T2 sequence (P15056 whole entry V600E): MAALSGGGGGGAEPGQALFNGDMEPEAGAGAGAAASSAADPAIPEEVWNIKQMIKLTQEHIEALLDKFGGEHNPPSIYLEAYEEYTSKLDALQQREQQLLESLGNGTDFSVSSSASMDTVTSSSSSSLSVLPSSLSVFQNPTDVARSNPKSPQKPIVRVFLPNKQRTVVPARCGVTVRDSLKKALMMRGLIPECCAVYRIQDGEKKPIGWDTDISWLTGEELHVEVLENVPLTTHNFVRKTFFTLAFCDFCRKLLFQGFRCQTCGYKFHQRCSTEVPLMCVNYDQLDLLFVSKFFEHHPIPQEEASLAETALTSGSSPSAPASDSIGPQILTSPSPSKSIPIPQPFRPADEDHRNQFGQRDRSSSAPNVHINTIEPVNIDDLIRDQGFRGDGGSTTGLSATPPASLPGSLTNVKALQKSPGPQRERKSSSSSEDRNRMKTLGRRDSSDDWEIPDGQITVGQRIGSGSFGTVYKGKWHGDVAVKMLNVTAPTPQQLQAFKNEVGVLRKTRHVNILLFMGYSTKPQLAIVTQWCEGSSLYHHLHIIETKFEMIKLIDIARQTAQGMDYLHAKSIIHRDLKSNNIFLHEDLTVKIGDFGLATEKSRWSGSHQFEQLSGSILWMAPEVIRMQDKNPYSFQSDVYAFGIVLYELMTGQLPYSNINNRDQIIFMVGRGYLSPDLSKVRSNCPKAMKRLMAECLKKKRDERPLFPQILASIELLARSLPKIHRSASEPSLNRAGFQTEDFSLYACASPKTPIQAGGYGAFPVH
# Method in brief: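 T-Rex 293 cells stably expressing doxycycline-induced (1 ng/mL) HA-BRAF V600E were treated 24 h at 37 °C with compound (300 nM–5 pM, 11 points, 0.5% DMSO). HA immunofluorescence was quantified by high-content imaging to give DC50 and Dmax (% of control); nuclei counts versus DMSO gauged toxicity.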
# T1 sequence (P15056 whole entry G466V): as the sequence (P15056 whole entry V600E) above, with G466V, E600V counted along it
DC50 (B-RAF G466V; Assay D),Dmax (B-RAF G466V),DC50 (B-RAF V600E),Dmax (B-RAF V600E),Compound,B-RAF G466V DMax (%) (B-RAF G466V; Assay D)
1 to 10 nM,35 to 70%,50 to 500 nM,35 to 70%,"N#Cc1c(NS(=O)(=O)N2CC[C@@H](F)C2)ccc(F)c1Oc1ccc2ncn(-c3cnc(C4(N5CCN(CC6CN(c7ccc8c(c7)CN(C7CCC(=O)NC7=O)C8=O)C6)CC5)CC4)nc3)c(=O)c2c1 (stereo partly drawn) [Example 99, (3R)-N-(2-cyano-3-{[3-(2-{1-[4-({1-[2-(2,6-dioxopiperidin-3-yl)-1-oxo-2,3-dihydro-1H-isoindol-5-yl]azetidin-3-yl}methyl)piperazin-1-yl]cyclopropyl}pyrimidin-5-yl)-4-oxo-3,4-dihydroquinazolin-6-yl]oxy}-4-fluorophenyl)-3-fluoropyrrolidine-1-sulfonamide]",
10 to 30 nM,≤ 35%,50 to 500 nM,35 to 70%,"N#Cc1c(NS(=O)(=O)N2CC[C@@H](F)C2)ccc(F)c1Oc1ccc2ncn(-c3ccc(N4CCC(CCN5CCN(c6ccc7c(c6)C(=O)N(C6CCC(=O)NC6=O)C7=O)CC5)CC4)nc3)c(=O)c2c1 (stereo partly drawn) [Example 163, (3R)-N-{2-cyano-3-[(3-{6-[4-(2-{4-[2-(2,6-dioxopiperidin-3-yl)-1,3-dioxo-2,3-dihydro-1H-isoindol-5-yl]piperazin-1-yl}ethyl)piperidin-1-yl]pyridin-3-yl}-4-oxo-3,4-dihydroquinazolin-6-yl)oxy]-4-fluorophenyl}-3-fluoropyrrolidine-1-sulfonamide]",
1 to 10 nM,≥ 70%,50 to 500 nM,35 to 70%,"N#Cc1c(NS(=O)(=O)N2CC[C@@H](F)C2)ccc(F)c1Oc1ccc2ncn(-c3cccc(C4CCN(CC5CN(c6ccc7c(c6)CN([C@H]6CCC(=O)NC6=O)C7=O)C5)CC4)c3)c(=O)c2c1 [Example 255, (3R)-N-(2-cyano-3-{[3-(3-{1-[(1-{2-[(3S)-2,6-dioxopiperidin-3-yl]-1-oxo-2,3-dihydro-1H-isoindol-5-yl}azetidin-3-yl)methyl]piperidin-4-yl}phenyl)-4-oxo-3,4-dihydroquinazolin-6-yl]oxy}-4-fluorophenyl)-3-fluoropyrrolidine-1-sulfonamide]",
1 to 10 nM,≥ 70%,50 to 500 nM,≥ 70%,"N#Cc1c(NS(=O)(=O)N2CC[C@@H](F)C2)ccc(F)c1Oc1ccc2ncn(-c3ccc(N4CCC(CN5CC6(CCN(c7ccc8c(c7)CN([C@H]7CCC(=O)NC7=O)C8=O)CC6)C5)CC4)cc3)c(=O)c2c1 [Example 238, (3R)-N-(2-cyano-3-{[3-(4-{4-[(7-{2-[(3S)-2,6-dioxopiperidin-3-yl]-1-oxo-2,3-dihydro-1H-isoindol-5-yl}-2,7-diazaspiro[3.5]nonan-2-yl)methyl]piperidin-1-yl}phenyl)-4-oxo-3,4-dihydroquinazolin-6-yl]oxy}-4-fluorophenyl)-3-fluoropyrrolidine-1-sulfonamide]",
1 to 10 nM,,50 to 500 nM,,"N#Cc1c(NS(=O)(=O)N2CC[C@@H](F)C2)ccc(F)c1Oc1ccc2ncn(-c3cccc(C4CCN(CC5CCN(c6ccc7c(c6)CN([C@H]6CCC(=O)NC6=O)C7=O)CC5)C4)c3)c(=O)c2c1 (single isomer, unassigned) [Example 259, (3R)-N-{2-cyano-3-[(3-{3-[(3R*)-1-[(1-{2-[(3S)-2,6-dioxopiperidin-3-yl]-1-oxo-2,3-dihydro-1H-isoindol-5-yl}piperidin-4-yl)methyl]pyrrolidin-3-yl]phenyl}-4-oxo-3,4-dihydroquinazolin-6-yl)oxy]-4-fluorophenyl}-3-fluoropyrrolidine-1-sulfonamide]",
> 30 nM,,50 to 500 nM,≤ 35%,"N#Cc1c(NS(=O)(=O)N2CC[C@@H](F)C2)ccc(F)c1Oc1ccc2ncn(-c3ccc(N4CCN(CC5CCN(c6ccc(F)c(C(=O)NC7CCC(=O)NC7=O)c6)CC5)CC4)nc3)c(=O)c2c1 (stereo partly drawn) [Example 140, 5-(4-{[4-(5-{6-[2-cyano-6-fluoro-3-({[(3R)-3-fluoropyrrolidin-1-yl]sulfonyl}amino)phenoxy]-4-oxo-3,4-dihydroquinazolin-3-yl}pyridin-2-yl)piperazin-1-yl]methyl}piperidin-1-yl)-N-(2,6-dioxopiperidin-3-yl)-2-fluorobenzamide]",
≤ 1 nM,≤ 35%,5 to 50 nM,35 to 70%,"N#Cc1c(NS(=O)(=O)N2CC[C@@H](F)C2)ccc(F)c1Oc1ccc2ncn(-c3ccc(N4CCN(c5ccc(C(=O)NC6CCC(=O)NC6=O)c(F)c5)CC4)nc3)c(=O)c2c1 (stereo partly drawn) [Example 162, 4-[4-(5-{6-[2-cyano-6-fluoro-3-({[(3R)-3-fluoropyrrolidin-1-yl]sulfonyl}amino)phenoxy]-4-oxo-3,4-dihydroquinazolin-3-yl}pyridin-2-yl)piperazin-1-yl]-N-(2,6-dioxopiperidin-3-yl)-2-fluorobenzamide]",
1 to 10 nM,≤ 35%,50 to 500 nM,35 to 70%,"N#Cc1c(NS(=O)(=O)N2CC[C@@H](F)C2)ccc(F)c1Oc1ccc2ncn(-c3ccc(N4CCN(c5ccc6c(c5)C(=O)N(C5CCC(=O)NC5=O)C6=O)CC4)nc3)c(=O)c2c1 (stereo partly drawn) [Example 161, (3R)-N-(2-cyano-3-{[3-(6-{4-[2-(2,6-dioxopiperidin-3-yl)-1,3-dioxo-2,3-dihydro-1H-isoindol-5-yl]piperazin-1-yl}pyridin-3-yl)-4-oxo-3,4-dihydroquinazolin-6-yl]oxy}-4-fluorophenyl)-3-fluoropyrrolidine-1-sulfonamide]",
1 to 10 nM,≤ 35%,50 to 500 nM,≤ 35%,"C[C@H]1CN(CC2CCN(c3ccc4c(c3F)CN([C@H]3CCC(=O)NC3=O)C4=O)CC2)CCN1c1ccc(-n2cnc3ccc(Oc4c(F)ccc(NS(=O)(=O)N5CC[C@@H](F)C5)c4C#N)cc3c2=O)nc1 [Example 213, (3R)-N-{2-cyano-3-[(3-{5-[(2S)-4-[(1-{2-[(3S)-2,6-dioxopiperidin-3-yl]-4-fluoro-1-oxo-2,3-dihydro-1H-isoindol-5-yl}piperidin-4-yl)methyl]-2-methylpiperazin-1-yl]pyridin-2-yl}-4-oxo-3,4-dihydroquinazolin-6-yl)oxy]-4-fluorophenyl}-3-fluoropyrrolidine-1-sulfonamide]",
1 to 10 nM,35 to 70%,5 to 50 nM,35 to 70%,"N#Cc1c(NS(=O)(=O)N2CC[C@@H](F)C2)ccc(F)c1Oc1ccc2ncn(-c3ccc(N4CCC(CN5CCN(CC6CCN(c7ccc8c(c7)C(=O)N(C7CCC(=O)NC7=O)C8=O)CC6)CC5)CC4)nc3)c(=O)c2c1 (stereo partly drawn) [Example 147, (3R)-N-[2-cyano-3-({3-[6-(4-{[4-({1-[2-(2,6-dioxopiperidin-3-yl)-1,3-dioxo-2,3-dihydro-1H-isoindol-5-yl]piperidin-4-yl}methyl)piperazin-1-yl]methyl}piperidin-1-yl)pyridin-3-yl]-4-oxo-3,4-dihydroquinazolin-6-yl}oxy)-4-fluorophenyl]-3-fluoropyrrolidine-1-sulfonamide]",
> 30 nM,,50 to 500 nM,35 to 70%,"N#Cc1c(NS(=O)(=O)N2CC[C@@H](F)C2)ccc(F)c1Oc1ccc2ncn(-c3ccc(NC4CCN(c5ccc6c(c5)C(=O)N(C5CCC(=O)NC5=O)C6=O)CC4)nc3)c(=O)c2c1 (stereo partly drawn) [Example 157, (3R)-N-[2-cyano-3-({3-[6-({1-[2-(2,6-dioxopiperidin-3-yl)-1,3-dioxo-2,3-dihydro-1H-isoindol-5-yl]piperidin-4-yl}amino)pyridin-3-yl]-4-oxo-3,4-dihydroquinazolin-6-yl}oxy)-4-fluorophenyl]-3-fluoropyrrolidine-1-sulfonamide]",
> 30 nM,,50 to 500 nM,≤ 35%,"N#Cc1c(NS(=O)(=O)N2CC[C@@H](F)C2)ccc(F)c1Oc1ccc2ncn(-c3ccc(N4CCC5(CCN(c6ccc7c(c6)C(=O)N(C6CCC(=O)NC6=O)C7=O)CC5)CC4)nc3)c(=O)c2c1 (stereo partly drawn) [Example 148, (3R)-N-(2-cyano-3-{[3-(6-{9-[2-(2,6-dioxopiperidin-3-yl)-1,3-dioxo-2,3-dihydro-1H-isoindol-5-yl]-3,9-diazaspiro[5.5]undecan-3-yl}pyridin-3-yl)-4-oxo-3,4-dihydroquinazolin-6-yl]oxy}-4-fluorophenyl)-3-fluoropyrrolidine-1-sulfonamide]",

Compound,DC50 (B-RAF G466V; Assay D),Dmax (B-RAF G466V),DC50 (B-RAF V600E),Dmax (B-RAF V600E),B-RAF G466V DMax (%) (B-RAF G466V; Assay D)
"CN(CC1CCN(c2ccc(-n3cnc4ccc(Oc5c(F)ccc(NS(=O)(=O)N6CC[C@@H](F)C6)c5C#N)cc4c3=O)cn2)CC1)[C@H]1C[C@H](Oc2ccc3c(c2)C(=O)N([C@@H]2CCC(=O)NC2=O)C3=O)C1 [Example 166, (3R)-N-{2-cyano-4-fluoro-3-[(3-{6-[4-({methyl[(1r,3r)-3-{[2-(2,6-dioxopiperidin-3-yl)-1,3-dioxo-2,3-dihydro-1H-isoindol-5-yl]oxy}cyclobutyl]amino}methyl)piperidin-1-yl]pyridin-3-yl}-4-oxo-3,4-dihydroquinazolin-6-yl)oxy]phenyl}-3-fluoropyrrolidine-1-sulfonamide]",1 to 10 nM,,> 500 nM,,C (C ≤ 35)

# — patent US11957759B1, “Rapidly accelerated fibrosarcoma (RAF) degrading compounds and associated methods of use” (Arvinas Operations, Inc., priority 2022, dated 2024)
